# “Also recorded” adds a separate entry of the source.
# Key:
# Assay type in all cases: in vivo
# [1] = tested on: mice with 5-FU-induced diarrhea; test: Diarrhea scoring, mice with 5-FU-induced diarrhea (CID model); settings: 20 mg/kg i.g.; 5-FU model
# Protocol: Pdist-1, Lferm-1, Lsali-1, Eaviu-1, and Bbifi-1 were each inoculated into the corresponding bacterial powder preparation medium, and then anaerobically cultured at 37° C. and 90 rpm for 16-24 h to obtain a primary seed solution. Subsequently, the five primary seed solutions were each transferred to the corresponding bacterial powder preparation medium, and then anaerobically cultured at 37° C. and 90 rpm for 10-15 h to obtain a secondary seed solution. The five secondary seed solutions were each pumped into a fermenter containing the corresponding bacterial powder preparation medium using a peristaltic pump, and then subjected to fermentation culture. After the fermentation was stopped, the bacterial cells of each strain were collected by centrifugation. Each corresponding lyoprotectant was added according to a weight ratio of the bacterial sludge to the lyoprotectant of 1:1 to 1:2, and the mixture was well mixed to emulsify the bacterial sludge. Each bacterial sludge was lyophilized and pulverized to obtain a bacterial powder. An appropriate amount of each pulverized bacterial powder was taken for determination of viable count. The bacterial powders of the strains were mixed at equal CFU concentrations based on the viable counts to obtain a bacterial composition powder. Finally, the bacterial composition powder was prepared into a bacterial suspension using normal saline for an animal experiment. The bacterial suspension was diluted with normal saline to obtain bacterial compositions with different bacterial doses. […]
# During the experimental period, the body weight of the animals was measured daily, and general observations were recorded (the observation items included but were not limited to the animals' appearance signs, behaviors and activities, respiration, glandular secretion, fecal condition, etc.). The diarrhea condition of each animal after modeling was specifically observed and then recorded and scored. […]
# [2] = tested on: mice with radiation enteritis; test: Diarrhea scoring, radiation enteritis model mice; settings: 15 mg/kg i.g.
# [3] = tested on: 5-FU-induced tumor-bearing CID mice; test: Diarrhea scoring, 5-FU-induced tumor-bearing CID mice; settings: 20 mg/kg i.g., tumor-bearing 5-FU model
# Source text: The bacterial composition used in Examples 10-12 were obtained by mixing five strains at equal CFU concentrations according to the method in Example 9. The CFU of the bacterial composition referred to in Examples 10-12 was the total CFU of the five strains.
# (§1) Experimental design: Fifty male BALB/c mice (purchased from Chengdu GemPharmatech Co., Ltd.) were housed in an SPF-grade animal room. CT26 cells (purchased from Beijing BeNa Culture Collection) were subcutaneously inoculated into the right flank of each mouse at a dose of 5×10^6 cells/mouse in a volume of 0.1 mL. When the tumor volume reached about 100-150 mm^3, 42 mice were selected for the subsequent experiment. Based on the tumor volume, the aforementioned 42 mice were randomly divided into 7 groups of 6. The aforementioned 7 groups were as follows: a normal control group (administration regimen: lyoprotectant at 0.2 mL/mouse/day), a model control group (administration regimen: lyoprotectant at 0.2 mL/mouse/day), a positive control loperamide group (administration regimen: loperamide at 20 mg/kg body weight), a Zhengchangsheng group (administration regimen: Bacillus licheniformis at 2×10^8 CFU/mouse/day), a high-dose bacterial composition group (administration regimen: bacterial composition at 1×10^9 CFU/mouse/day), a medium-dose bacterial composition group (administration regimen: bacterial composition at 1×10^8 CFU/mouse/day), and a low-dose bacterial composition group (administration regimen: bacterial composition at 1×10^7 CFU/mouse/day). The day of grouping was designated as day 1 (D1) of the experiment, and intragastric administration was started on day 1 (D1) and performed once daily (QD) for 9 consecutive days. On days 3, 4, 5, and 6 of administration, the normal control group was intraperitoneally injected with normal saline at 0.2 mL/mouse, while the mice in all other groups were intraperitoneally injected with 5-FU (50 mg/kg body weight, 10 mL/kg body weight) for modeling. Compared with the normal control group, the tumor volumes of mice in each group were reduced after 5-FU injection.
# TNF-α = test: qPCR of colon tissue, 5-FU-induced diarrhea mice; settings: 20 mg/kg i.g., 5-FU model
# Source text: (§2) (1) Experimental design: Ninety-six SPF-grade male Balb/c mice weighing 22-24 g (purchased from Beijing Vital River Laboratory Animal Technology Co., Ltd.) were housed in an SPF-grade animal room. Based on the initial body weight, the mice were randomly divided into 8 groups of 12: a normal control group, a model control group, a positive control loperamide group, a positive control Zhengchangsheng group, a high-dose bacterial composition group, a medium-high-dose bacterial composition group, a medium-dose bacterial composition group, and a low-dose bacterial composition group. The aforementioned 8 groups were intragastrically given normal saline (0.2 mL/mouse/day), lyoprotectant (0.2 mL/mouse/day), loperamide (purchased from Henan Zhongjie Pharmaceutical Co., Ltd., 20 mg/kg body weight/mouse/day), Zhengchangsheng (containing viable Bacillus licheniformis, Northeast Pharmaceutical Group Co., Ltd., 2×10^8 CFU/mouse/day), high-dose bacterial composition (1×10^9 CFU/mouse/day), medium-high-dose bacterial composition (1×10^8 CFU/mouse/day), medium-dose bacterial composition (1×10^7 CFU/mouse/day), and low-dose bacterial composition (1×10^6 CFU/mouse/day), respectively. The overall experimental period was 9 days, designated as D1 to D9. Intragastric administration was performed for 8 consecutive days from D1 to D8. Modeling was started on D3. The mice in the normal control group received abdominal injection of normal saline at 0.2 mL/mouse, while the mice in all other groups were intraperitoneally injected with 5-FU (5-fluorouracil, purchased from Tianjin Pharma Heping (Tianjin) Pharmaceutical Co., Ltd.; specification: 10 mL/vial, 0.25 g/10 mL) at 30 mg/kg body weight for 4 consecutive days to induce a CID mouse model. The mice were dissected on D9.
# (§3) During the experimental period, the body weight of the animals was measured daily, and general observations were recorded (the observation items included but were not limited to the animals' appearance signs, behaviors and activities, respiration, glandular secretion, fecal condition, etc.). The diarrhea condition of each animal after modeling was specifically observed and then recorded and scored. After euthanasia was performed at the end of the experiment, middle colon tissue samples were collected for qPCR detection of genes related to inflammatory factors (TNF-α and IL-1β) and tight junction proteins (ZO-1 and Occludin).
# (§4) (3) qPCR detection: The total RNA was extracted from colon tissues of the mice in each group using the Trizol method and then reverse-transcribed into cDNA. The cDNA was stored at −20° C. for later use. The relative mRNA transcriptional levels of the genes encoding the pro-inflammatory factors IL-1β and TNF-α, as well as the tight junction proteins ZO-1 and Occludin-1, in the colon of the mice in each group were detected using the qRT-PCR method (the primer sequences are shown in Table 7, and the internal reference gene was β-actin). Reaction program: 1) 95° C. for 3 min; 2) 95° C. for 10 s, 60° C. for 30 s, 95° C. for 15 s, and 60° C. for 1 min, 40 cycles in total; and 3) 95° C. for 10 s. Data analysis was performed using the 2^−ΔΔCT method.
# ZO-1 = test: qPCR of colon tissue, 5-FU-induced diarrhea mice; settings: 20 mg/kg i.g.; 5-FU model
# Source text: as §2, §3, §4
# Occludin = test: qPCR of colon tissue, 5-FU-induced diarrhea mice; settings: 20 mg/kg i.g.; 5-FU model
# Source text: as §2, §3, §4
# IL-1β = test: qPCR of colon tissue, 5-FU-induced diarrhea mice; settings: 20 mg/kg i.g.; 5-FU model
# Source text: as §2, §3, §4
# [4] = Body weight, radiation enteritis model mice; settings: 15 mg/kg i.g.
# Protocol: (§5) (1) Experimental design: Eighty male C57BL/6 mice (purchased from Chengdu GemPharmatech Co., Ltd.) were housed in an SPF-grade animal room. Based on the body weight, the aforementioned mice were randomly divided into 8 groups of 10: a normal control group (administration regimen: normal saline at 0.2 mL/mouse/day), a model control group (administration regimen: lyoprotectant at 0.2 mL/mouse/day), a loperamide group (administration regimen: loperamide at 15 mg/kg body weight), an LGG (Lactobacillus rhamnosus GG, Shaanxi Zelang Biotechnology Co., Ltd.) group (administration regimen: LGG at 1×10^9 CFU/mouse/day), a high-dose bacterial composition group (administration regimen: bacterial composition at 1×10^9 CFU/mouse/day), a medium-high-dose bacterial composition group (administration regimen: bacterial composition at 1×10^8 CFU/mouse/day), a medium-dose bacterial composition group (administration regimen: bacterial composition at 1×10^7 CFU/mouse/day), and a low-dose bacterial composition group (administration regimen: bacterial composition at 1×10^6 CFU/mouse/day). Except for the normal control group, all other groups of mice were subjected to a single whole abdominal X-ray irradiation at a dose of 11.5 Gy. The overall experimental period was 18 days, designated as D1 to D18. Each group was subjected to intragastric administration once daily for 17 consecutive days. Seven days after administration, irradiation was performed on D8, and dissection was conducted on D18.
# (§6) During the experimental period, the body weight of the animals was measured daily, and general observations were recorded (the observation items included but were not limited to the animals' appearance signs, behaviors and activities, respiration, glandular secretion, fecal condition, etc.). The diarrhea condition of each animal after irradiation modeling was specifically observed and then recorded and scored. At the end of the experiment, the animals were euthanized, and the colorectal parts were taken, directly fixed in a 10% formaldehyde solution, stained with HE, and then subjected to pathological examination.
# [5] = tested on: 5-FU-induced tumor-bearing CID mice; test: Blood routine examination, 5-FU-induced tumor-bearing mouse model; settings: 20 mg/kg i.g.; tumor-bearing 5-FU model
# Protocol: as §1
# The specific administration regimens are detailed in Table 18. After the end of the experiment, whole blood samples were collected from animals in each group through enucleation, and then subjected to blood routine examination using a five-classification blood cell analyzer for animals (Shenzhen Dymind Biotechnology Co., Ltd.).
# [6] = tested on: mice with radiation enteritis; test: Colorectal pathological examination (HE), radiation enteritis model mice; settings: 15 mg/kg i.g.
# Protocol: as §5, §6
# (3) Pathological examination of intestinal tissues: The colorectal parts were directly fixed in a 10% formaldehyde solution, stained with HE, and then subjected to pathological examination.
compound,measurement,setting,value
"CN(C)C(=O)C(CCN1CCC(O)(c2ccc(Cl)cc2)CC1)(c1ccccc1)c1ccccc1 [Loperamide, loperamide]",D8 diarrhea score,[1],0.08 ± 0.08
same,D9 diarrhea score,[1],0.17 ± 0.11
same,Total diarrhea score,[1],0.25 ± 0.18
same,D17 total diarrhea score,[2],9.80 ± 0.59
same,D17 total diarrhea score,[2]; listed as loperamide,significant improvements
same,D1-D9 total diarrhea score,[3],4.67 ± 0.56
same,D6 diarrhea score,[3],0.33 ± 0.21
same,D7 diarrhea score,[3],1.00 ± 0.00
same,D8 diarrhea score,[3],1.33 ± 0.21
same,D9 diarrhea score,[3],2.00 ± 0.37
same,D1-D9 total diarrhea score,[3]; listed as loperamide,a significant reduction; also recorded: significantly ameliorate diarrhea
same,D8 diarrhea score,[3]; listed as loperamide,a significant reduction
same,TNF-a relative mRNA transcription level in colon tissue,TNF-α,1.05
same,TNF-a relative mRNA transcription level in colon tissue,TNF-α; listed as loperamide,significantly reduce
same,ZO-1 relative mRNA transcription level in colon tissue,ZO-1,0.80
same,Occludin relative mRNA transcription level in colon tissue,Occludin,0.90
same,IL-1β relative mRNA transcription level in colon tissue,IL-1β,1.26
same,D1 body weight,[4],23.11 ± 0.20 g
same,D14 body weight,[4],19.79 ± 0.14 g
same,D14 body weight change rate,[4],−14.37 ± −10.00%
same,D17 body weight,[4],20.92 ± 0.16 g
same,D17 body weight change rate,[4],−9.48 ± −6.38%
same,D17 body weight,[4]; listed as loperamide,a trend toward restoring
same,Hematocrit,[5],43.17 ± 0.99%
same,Lymphocyte count,[5],1.18 ± 0.29 10^9/L
same,Platelet count,[5],216.67 ± 21.53 10^9/L
same,Red blood cell count,[5],9.39 ± 0.23 10^12/L
same,White blood cell count,[5],1.24 ± 0.30 10^9/L
same,Goblet cell (colorectal pathological score),[6],1.60 ± 0.08
same,Inflammatory infiltration (colorectal pathological score),[6],2.00 ± 0.00
same,Mucosal damage (colorectal pathological score),[6],1.60 ± 0.08
same,Pathological score (colorectal),[6],5.20 ± 0.15
same,Pathological score (colorectal),[6]; listed as loperamide,an improvement trend
